Experimental data from the supplement of paper PMC10307832.

Tests used:
Test in all cases: relative viability (nuclei count vs DMSO), 5 days (fraction); higher = more cells survive
NCI-H1437 = test system: NCI-H1437
Summary of the method: (§1)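 Nuclei were stained with Hoechst during a one-step fixation (final 0.05% Triton X-100, 1% formaldehyde, 1 ug/ml Hoechst) carried out 5 days after dosing, then counted on 4× images. The cells, lung cancer lines in 1536-well plates, had been dosed by pin tool the day after seeding with one drug alone or a fixed anchor-drug dose plus five library-drug doses (not always all listed) in √10 steps. Relative viability is the nuclei count in treated wells divided by that in vehicle wells, and each value is the median of duplicate plates.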

NCI-H23 = test system: NCI-H23
Summary of the method: as §1

HCC-366 = test system: HCC-366
Summary of the method: as §1

SW 1573 = test system: SW 1573
Summary of the method: as §1

NCI-H727 = test system: NCI-H727
Summary of the method: as §1

NCI-H460 = test system: NCI-H460
Summary of the method: as §1

HCC-827 = test system: HCC-827
Summary of the method: as §1

CAL-12T = test system: CAL-12T
Summary of the method: as §1

LCLC-103H = test system: LCLC-103H
Summary of the method: as §1

HOP-62 = test system: HOP-62
Summary of the method: as §1

SK-LU-1 = test system: SK-LU-1
Summary of the method: as §1

NCI-H1395 = test system: NCI-H1395
Summary of the method: as §1

EMC-BAC-2 = test system: EMC-BAC-2
Summary of the method: as §1

COR-L 105 = test system: COR-L 105
Summary of the method: as §1

NCI-H1915 = test system: NCI-H1915
Summary of the method: as §1

HARA = test system: HARA
Summary of the method: as §1

NCI-H2228 = test system: NCI-H2228
Summary of the method: as §1

NCI-H2009 = test system: NCI-H2009
Summary of the method: as §1

NCI-H1755 = test system: NCI-H1755
Summary of the method: as §1

A-427 = test system: A-427
Summary of the method: as §1

`Nc1ccn([C@@H]2O[C@H](CO)[C@@H](O)[C@@H]2O)c(=O)n1` [Cytarabine] + COc1cc2c(Oc3ccc(NC(=O)C4(C(=O)Nc5ccc(F)cc5)CC4)cc3F)ccnc2cc1OCCCN1CCOCC1 [Foretinib] (partner 0.25 µM) was tested, and the relative viability (NCI-H1437; first compound 0.005 µM) was 0.973, the relative viability (NCI-H1437; first compound 0.01581 µM) was 0.922 and the relative viability (NCI-H1437; first compound 0.05 µM) was 0.626. It also gave a relative viability (NCI-H1437; first compound 0.1581 µM) of 0.287, a relative viability (NCI-H1437; first compound 0.5 µM) of 0.251 and a relative viability (NCI-H23; first compound 0.005 µM) of 0.784. The relative viability (NCI-H23; first compound 0.01581 µM) was 0.414, the relative viability (NCI-H23; first compound 0.05 µM) was 0.43 and the relative viability (NCI-H23; first compound 0.1581 µM) was 0.285. For the same compound, the relative viability (NCI-H23; first compound 0.5 µM) was 0.256, the relative viability (HCC-366; first compound 0.005 µM) was 0.991 and the relative viability (HCC-366; first compound 0.01581 µM) was 0.831. It also gave a relative viability (HCC-366; first compound 0.05 µM) of 0.584, a relative viability (HCC-366; first compound 0.1581 µM) of 0.119 and a relative viability (HCC-366; first compound 0.5 µM) of 0.105. For the same compound, the relative viability (SW 1573; first compound 0.005 µM) was 0.929, the relative viability (SW 1573; first compound 0.01581 µM) was 0.688 and the relative viability (SW 1573; first compound 0.05 µM) was 0.881. For the same compound, the relative viability (SW 1573; first compound 0.1581 µM) was 0.464, the relative viability (SW 1573; first compound 0.5 µM) was 0.202 and the relative viability (NCI-H727; first compound 0.005 µM) was 0.656. The relative viability (NCI-H727; first compound 0.01581 µM) was 0.681, the relative viability (NCI-H727; first compound 0.05 µM) was 0.597 and the relative viability (NCI-H727; first compound 0.1581 µM) was 0.488. It also gave a relative viability (NCI-H727; first compound 0.5 µM) of 0.397, a relative viability (NCI-H460; first compound 0.005 µM) of 1.05 and a relative viability (NCI-H460; first compound 0.01581 µM) of 0.837. The relative viability (NCI-H460; first compound 0.05 µM) was 0.492, the relative viability (NCI-H460; first compound 0.1581 µM) was 0.0445 and the relative viability (NCI-H460; first compound 0.5 µM) was 0.0401. The relative viability (HCC-827; first compound 0.005 µM) was 0.721, the relative viability (HCC-827; first compound 0.01581 µM) was 0.424 and the relative viability (HCC-827; first compound 0.05 µM) was 0.368. For the same compound, the relative viability (HCC-827; first compound 0.1581 µM) was 0.169, the relative viability (HCC-827; first compound 0.5 µM) was 0.177 and the relative viability (CAL-12T; first compound 0.005 µM) was 1.11. For the same compound, the relative viability (CAL-12T; first compound 0.01581 µM) was 1.18, the relative viability (CAL-12T; first compound 0.05 µM) was 1.05 and the relative viability (CAL-12T; first compound 0.1581 µM) was 0.619. For the same compound, the relative viability (CAL-12T; first compound 0.5 µM) was 0.358, the relative viability (LCLC-103H; first compound 0.005 µM) was 0.849 and the relative viability (LCLC-103H; first compound 0.01581 µM) was 0.817. For the same compound, the relative viability (LCLC-103H; first compound 0.05 µM) was 0.96, the relative viability (LCLC-103H; first compound 0.1581 µM) was 0.604 and the relative viability (LCLC-103H; first compound 0.5 µM) was 0.57. For the same compound, the relative viability (HOP-62; first compound 0.005 µM) was 0.904, the relative viability (HOP-62; first compound 0.01581 µM) was 0.875 and the relative viability (HOP-62; first compound 0.05 µM) was 0.45. For the same compound, the relative viability (HOP-62; first compound 0.1581 µM) was 0.137, the relative viability (HOP-62; first compound 0.5 µM) was 0.142 and the relative viability (SK-LU-1; first compound 0.005 µM) was 0.735. The relative viability (SK-LU-1; first compound 0.01581 µM) was 0.759, the relative viability (SK-LU-1; first compound 0.05 µM) was 0.538 and the relative viability (SK-LU-1; first compound 0.1581 µM) was 0.302. The relative viability (SK-LU-1; first compound 0.5 µM) was 0.23, the relative viability (NCI-H1395; first compound 0.005 µM) was 0.917 and the relative viability (NCI-H1395; first compound 0.01581 µM) was 0.757. For the same compound, the relative viability (NCI-H1395; first compound 0.05 µM) was 0.548, the relative viability (NCI-H1395; first compound 0.1581 µM) was 0.492 and the relative viability (NCI-H1395; first compound 0.5 µM) was 0.413. It also gave a relative viability (EMC-BAC-2; first compound 0.005 µM) of 0.954, a relative viability (EMC-BAC-2; first compound 0.01581 µM) of 0.831 and a relative viability (EMC-BAC-2; first compound 0.05 µM) of 0.305. The relative viability (EMC-BAC-2; first compound 0.1581 µM) was 0.282, the relative viability (EMC-BAC-2; first compound 0.5 µM) was 0.226 and the relative viability (COR-L 105; first compound 0.005 µM) was 0.972. It also gave a relative viability (COR-L 105; first compound 0.01581 µM) of 1.29, a relative viability (COR-L 105; first compound 0.05 µM) of 0.825 and a relative viability (COR-L 105; first compound 0.1581 µM) of 0.812. For the same compound, the relative viability (COR-L 105; first compound 0.5 µM) was 0.438, the relative viability (NCI-H1915; first compound 0.005 µM) was 1.11 and the relative viability (NCI-H1915; first compound 0.01581 µM) was 1.02. For the same compound, the relative viability (NCI-H1915; first compound 0.05 µM) was 1.01, the relative viability (NCI-H1915; first compound 0.1581 µM) was 0.771 and the relative viability (NCI-H1915; first compound 0.5 µM) was 0.757. The relative viability (HARA; first compound 0.005 µM) was 0.753, the relative viability (HARA; first compound 0.01581 µM) was 0.496 and the relative viability (HARA; first compound 0.05 µM) was 0.363. It also gave a relative viability (HARA; first compound 0.1581 µM) of 0.107, a relative viability (HARA; first compound 0.5 µM) of 0.123 and a relative viability (NCI-H2228; first compound 0.005 µM) of 0.479. The relative viability (NCI-H2228; first compound 0.01581 µM) was 0.563, the relative viability (NCI-H2228; first compound 0.05 µM) was 0.285 and the relative viability (NCI-H2228; first compound 0.1581 µM) was 0.173. It also gave a relative viability (NCI-H2228; first compound 0.5 µM) of 0.166, a relative viability (NCI-H2009; first compound 0.005 µM) of 1.23 and a relative viability (NCI-H2009; first compound 0.01581 µM) of 1.22. The relative viability (NCI-H2009; first compound 0.05 µM) was 1.19, the relative viability (NCI-H2009; first compound 0.1581 µM) was 0.981 and the relative viability (NCI-H2009; first compound 0.5 µM) was 0.503. The relative viability (NCI-H1755; first compound 0.005 µM) was 0.962, the relative viability (NCI-H1755; first compound 0.01581 µM) was 0.886 and the relative viability (NCI-H1755; first compound 0.05 µM) was 0.736. The relative viability (NCI-H1755; first compound 0.1581 µM) was 0.387, the relative viability (NCI-H1755; first compound 0.5 µM) was 0.356 and the relative viability (A-427; first compound 0.005 µM) was 0.975. The relative viability (A-427; first compound 0.01581 µM) was 0.399, the relative viability (A-427; first compound 0.05 µM) was 0.296 and the relative viability (A-427; first compound 0.1581 µM) was 0.182. The relative viability (A-427; first compound 0.5 µM) was 0.176.
